According to US20140086901A1, “Inhibition of Post-Radiation Tumor Growth” (The Board of Trustees of the Leland Stanford Junior …, priority 2008, published 2014):
Where two headings read alike, the source gives them in different places.

Key:
[1] = test system: glioblastoma tumors; experiment: Intracranial glioblastoma tumor growth with or without irradiation (bioluminescence imaging); assay type: in vivo, mouse
Method: Tumor growth was analyzed by using an IVIS in vivo imaging system (Caliper Life Sciences, Hopkinton, Mass.) to monitor the bioluminescence imaging of brain tumor.
AMD3100 (Sigma-Aldrich) was prepared in sterile saline.
After tumor inoculation on brain, carragenan treatment was done every five days.

[2] = Body weight monitoring during drug treatment to assess side effects; details: for loss in body weight during treatment: mice
[3] = test system: CD45+CD11b+ and CD45+F4/80+ cells; experiment: Immunostaining of brain samples for BM-derived myelomonocytic cells in glioblastoma tumors; assay type: in vivo, mouse; details: irradiation plus drug; harvested 18 days after irradiation
Excerpt: Primary antibodies for immunofluorescent staining included a rat monoclonal CD31/PECAM-1 (MEC13.3; BD Pharmingen, San Diego, Calif.), a rabbit polyclonal GFP antibody (Invitrogen, Eugene, Oreg.), a rabbit polyclonal MMP-9 (Abeam, Cambridge, Mass.), a biotinylated CD11b/macrophage-associated antigen-1α (M1/70; BD Pharmingen), a biotinylated CD11c (HL3; BD Pharmingen), a biotinylated Gr-1/Ly-6C (RB6-8C5; BD Pharmingen), rat monoclonal F4/80 (A3-1, Gnetex, Irvine, Calif.), and CD45 (BD Pharmingen). Anti phosphorylated CXCR-4 polyclonal antibody was obtained from Dr. J B Rubbin at Washington University.
Unless otherwise indicated, […] frozen sections of tumors were dried in air, hydrated with PBS, blocked with 5% goat serum in PBS (containing 0.03% Triton X-100) for 30 min, and incubated with primary antibodies for 2 hr at room temperature (RT). Sections were washed three times in PBS, followed by secondary antibody for 1 hr at RT. For glioblastomas, 5 μm frozen sections of tumors were dried in air, hydrated with PBS, blocked with 5% goat serum in PBS (containing 0.03% Triton X-100) for 30 min, and incubated with primary antibodies over night at 4° C. Sections were washed three times in PBS, followed by secondary antibody for 40 min at room temperature. […]

[4] = test system: MT1A2 tumors; experiment: MT1A2 tumor growth on pre-irradiated tissues of BM-transplanted mice; details: 100 μg/kg intraperitoneally once per day for up to 6 weeks
[5] = mouse, in vivo

Compound: c1cc(CN2CCCNCCNCCCNCC2)ccc1CN1CCCNCCNCCCNCC1 [AMD3100]
- growth of irradiated tumors ([1]; early tumor model, 2 Gy five times from day 11, drug for three weeks): significantly inhibited
- growth of irradiated tumors ([1]; late tumor model, 15 Gy on day 21, drug for three weeks): significantly inhibited
- loss in body weight during treatment [2]: did not show any significant loss in the weight

Compound: N#Cc1ccc(/C=C/C(=O)O)cc1 [NSC-134754]
- post-irradiation tumor growth ([1]; irradiation on day 20 plus drug daily for three weeks): decreased post-irradiation tumor growth
- CD45+CD11b+ cells in glioblastoma tumors [3]: absence
- CD45+F4/80+ cells in glioblastoma tumors [3]: absence
- loss in body weight during treatment [2]: did not show any significant loss in the weight

Compound: O=P(O)(O)C(O)(Cn1ccnc1)P(=O)(O)O [ZA, aminobisphosphonate zolendronic acid]
- loss in weight during treatment ([2]; treated every day): less than 10 % of body weight
- tumor growth on the irradiated site ([4]; MMP-9 KO+WT BM mice): significant inhibition of tumor growth
- tumor growth on pre-irradiated tissues ([4]; WT+KO BM mice): no effect on tumor growth

Compound: carrageenan
- growth of irradiated tumors ([1]; treated 1, 3 and 7 days prior to implantation, then every five days, 15 Gy on day 26): significantly inhibited
- loss in body weight during treatment [5]: did not show any significant loss in the weight
